Experimental data from patent publication US4474783A, “Cyclopropylmethyl piperazines, the process for preparing the same and their use in therapeutics” (Innothera, priority 1980, dated 1984).

Tests used:
[1] = acute toxicity, intravenous, male mice (LD50, Litchfield and Wilcoxon); conditions: mouse, in vivo; for LD50 at 168 h: i.v., 10 animals per group, 7 days observation, 95% confidence limit in brackets
Protocol: A toxicological study was also carried out on the compounds according to the invention.
More particularly, the acute toxicity was studied by introduction into the veins of male mice (10 animals per group), E.O.P.S. of the Swiss strain (bred by EVIC-CEBA).
The compounds to be tested were rendered soluble in physiological serum at variable concentrations and the solution obtained injected into the veins in an amount of 10 ml per kg of body weight. Administration was carried out in 20 seconds.
The animals were kept under clinical observation for three hours after administration and then daily for 7 days.
The lethal doses 50 (LD50) were calculated using the method of Litchfield and Wilcoxon (J. Pharmacol. Exp. Therap., 96-99, 1949) on the basis of the different mortality rates observed.

[2] = test system: isolated left auricle of the Guinea pig; test: inotropic activity: contractile force of isolated, electrically stimulated left auricle (Lumley, Broadley and Levy technique; cumulative method of Van Rossum); conditions: for EC50 / Emax: Cavia porcellus; for EC50 / Inotropic action pD2: 36° C., cumulative concentrations, minimum of three dose-action curves; for EC50: read-out: Inotropic action pD2 (converted); for Emax / Inotropic action α (intrinsic activity): relative to dopamine; for Emax: α=1, read-out: Inotropic action α (intrinsic activity); for Inotropic action α (intrinsic activity): α=1
Text: The technique used is that of P. Lumley, K. J. Broadley and G. P. Levy described in Cardiovascular Research, 11, 17-25, 1977. This technique is used to study the β1 cardiac inotrope function; the β1 receptors being cardiac in the Guinea pig as in man, the results obtained with the Guinea pig are applicable to man.
Guinea pigs of either sex are killed by a knock and bled; the left auricle is rapidly removed and immediately immersed in a Kreibs-Henseleit solution, the temperature being thermostatically maintained at 36° C. and aerated by a mixture of O2 and CO2 (95% and 5%). Two linen threads are attached to its ends: one is used to make contact between the auricle and a silver negative stimulating electrode, the other serves to connect the preparation to an isometric myograph (F-50 NARCO) and then to a recording system (Physiograph type M-K III NARCO).
Some 60 minutes are needed to ensure stability of the preparation.
Throughout the test, the auricle is activated electrically by a neurostimulator (Equipment Industriel II): voltage: supramaximum--width: 5 milli/sec.--frequency: 90 to 120 beats per minute.
Agonists, reference substances or compounds according to the invention, are added to the nutrient medium using the cumulative method of Van Rossum (Arch. Inter. Pharmacodyn., 143, 299-330, 1963). After adding each given amount of agonists, three minutes are allowed to pass before a further given amount of the product under study is added according to the method described above. The response of the organ to each concentration was assessed by the resultant increase in contractile force measured in gram. This was expressed as a percentage of the maximum increase (100%) for each compound and a dose-action curve was plotted. The agonist effect was quantified by calculating pD2 (E. J. Ariens and J. M. Van Rossum., Arch. Intern. Pharmacodyn. CX, No. 2, 2, 19 and Arch. Inter. Pharmacodyn. 143, 299-330, 1963) which characterizes the affinity of the compound under test for the receptors.
The agonist effect was also characterized by the intrinsic activity […] which defines the relative power of the agonist with respect to a standard which, in the tests, was dopamine, the intrinsic activity of which is taken arbitrarily to be α=1.
The results obtained are shown in table II below, it being assumed that:
the higher the value of pD2 and the more marked the affinity of the compound under test for the receivers, and
the higher the value of α, the better is the intrinsic activity.

C1CC1CN1CCN(CC2CC2)CC1 [3a]
LD50 at 168 h [1]: 110 mg/kg
EC50 [2]: 30.2 µM
Emax [2]: 69%

CCOC(=O)N1CCN(CC2CC2)CC1 [6a]
LD50 at 168 h [1]: 41 mg/kg
EC50 [2]: 1260 µM
Emax [2]: 58%

CN1CCN(CC2CC2)CC1 [Code No. 2]
LD50 at 168 h [1]: 320 mg/kg
EC50 [2]: 112 µM
Emax [2]: 48%

CCCCCN1CCN(CC2CC2)CC1 [Code No. 4]
LD50 at 168 h [1]: 37.5 mg/kg

OCCN1CCN(CC2CC2)CC1 [Code No. 5]
LD50 at 168 h [1]: 460 mg/kg

CC(CN1CCN(CC2CC2)CC1)C(=O)O (centres unmarked) [compound 7]
LD50 at 168 h [1]: 190 mg/kg

CC(CN1CCN(CC2CC2)CC1)C(=O)NCc1ccccc1 (centres unmarked) [compound 8]
LD50 at 168 h [1]: 245 mg/kg
EC50 [2]: 53.7 µM
Emax [2]: 57%

COc1ccccc1N1CCN(CC2CC2)CC1 [compound 10]
LD50 at 168 h [1]: 34 mg/kg

FC(F)(F)c1cccc(N2CCN(CC3CC3)CC2)c1 [compound 11]
LD50 at 168 h [1]: 30 mg/kg

CC(=O)c1ccc(N2CCN(CC3CC3)CC2)cc1 [compound 12]
LD50 at 168 h [1]: 90 mg/kg
EC50 [2]: 55 µM
Emax [2]: 82%

CC1CN(CC2CC2)CCN1CC1CC1 (centres unmarked) [compound 13]
LD50 at 168 h [1]: 104 mg/kg
EC50 [2]: 3.63 µM
Emax [2]: 36%

c1ccc(CN2CCN(CC3CC3)CC2)cc1 [compound 14]
LD50 at 168 h [1]: 46 mg/kg

O=C(c1ccc2c(c1)OCO2)N1CCN(CC2CC2)CC1 [compound 15]
LD50 at 168 h [1]: 155 mg/kg
EC50 [2]: 363 µM
Emax [2]: 88%

COc1cc(C(=O)N2CCN(CC3CC3)CC2)cc(OC)c1OC [compound 16]
mortality at 168 h ([1]; 100 mg/kg i.v.): 30%
Inotropic action pD2 [2]: 5.06
Inotropic action α (intrinsic activity) [2]: 0.52

COc1cc(C(=O)N2CCN(CC3CC3)CC2)cc(OC)c1OC [compound 17]
LD50 at 168 h [1]: 245 mg/kg
Inotropic action pD2 [2]: 3.50
Inotropic action α (intrinsic activity) [2]: 0.19

CCOC(=O)Oc1c(OC)cc(C(=O)N2CCN(CC3CC3)CC2)cc1OC [compound 18]
LD50 at 168 h [1]: 225 mg/kg

O=C(C=Cc1cccc(C(F)(F)F)c1)N1CCN(CC2CC2)CC1 [compound 19]
LD50 at 168 h [1]: 95 mg/kg

COc1cc(C=CC(=O)N2CCN(CC3CC3)CC2)cc(OC)c1OC [compound 20]
LD50 at 168 h [1]: 52 mg/kg
EC50 [2]: 776 µM
Emax [2]: 49%

COc1ccc(OCC(=O)N2CCN(CC3CC3)CC2)cc1 [compound 21]
LD50 at 168 h [1]: 115 mg/kg
EC50 [2]: 22.4 µM
Emax [2]: 69%

O=C(COc1ccc(F)cc1)N1CCN(CC2CC2)CC1 [compound 22]
LD50 at 168 h [1]: 100 mg/kg
EC50 [2]: 17.8 µM
Emax [2]: 48%

CC1CN(CC2CC2)CCN1 (centres unmarked) [compound 23]
LD50 at 168 h [1]: 280 mg/kg
EC50 [2]: 178 µM
Emax [2]: 75%

CC1CN(CC2CC2)CCN1CCN(C)C (centres unmarked) [compound 24]
LD50 at 168 h [1]: 200 mg/kg

CCN(CC)CCN1CCN(CC2CC2)CC1C (centres unmarked) [compound 25]
LD50 at 168 h [1]: 150 mg/kg

CC1CN(CC2CC2)CCN1CCN1CCCC1 (centres unmarked) [compound 26]
LD50 at 168 h [1]: 158 mg/kg
EC50 [2]: 14.1 µM
Emax [2]: 32%

CC1CN(CC2CC2)CCN1CCN1CCCCC1 (centres unmarked) [compound 27]
LD50 at 168 h [1]: 155 mg/kg
EC50 [2]: 47.9 µM
Emax [2]: 40%

CC1CN(CC2CC2)CCN1CCN1CCCCCC1 (centres unmarked) [compound 28]
LD50 at 168 h [1]: 95 mg/kg

CC1CN(CC2CC2)CCN1CCN1CCOCC1 (centres unmarked) [compound 29]
LD50 at 168 h [1]: 250 mg/kg

CCN(CC)CCCN1CCN(CC2CC2)CC1C (centres unmarked) [compound 30]
LD50 at 168 h [1]: 135 mg/kg

CC1CN(CC2CC2)CCN1CCCN1CCCC1 (centres unmarked) [compound 31]
LD50 at 168 h [1]: 165 mg/kg
EC50 [2]: 26.9 µM
Emax [2]: 25%

CC1CN(CC2CC2)CCN1CCCN1CCCCC1 (centres unmarked) [compound 32]
LD50 at 168 h [1]: 162 mg/kg
EC50 [2]: 0.525 µM
Emax [2]: 12%

CC1CN(CC2CC2)CCN1CCCN1CCCCCC1 (centres unmarked) [compound 33]
LD50 at 168 h [1]: 130 mg/kg

CC1CN(CC2CC2)CCN1CCCN1CCOCC1 (centres unmarked) [compound 34]
LD50 at 168 h [1]: 215 mg/kg
EC50 [2]: 5.13 µM
Emax [2]: 24%

CC1CN(CC2CC2)CCN1Cc1ccc2c(c1)OCO2 (centres unmarked) [compound 35]
LD50 at 168 h [1]: 77 mg/kg
EC50 [2]: 5.25 µM
Emax [2]: 17%

CC1CN(CC2CC2)CCN1Cc1ccc2c(c1Cl)OCO2 (centres unmarked) [compound 36]
LD50 at 168 h [1]: 65 mg/kg

CC1CN(CC2CC2)CCN1Cc1csc2ccccc12 (centres unmarked) [compound 37]
LD50 at 168 h [1]: 40 mg/kg

COc1cc(C(=O)N2CCN(CC3CC3)CC2C)cc(OC)c1OC (centres unmarked) [compound 38]
LD50 at 168 h [1]: 130 mg/kg

COc1cc(C(=O)N2CCN(CC3CC3)CC2C)cc(OC)c1OC(C)=O (centres unmarked) [compound 39]
LD50 at 168 h [1]: 225 mg/kg
EC50 [2]: 25.7 µM
Emax [2]: 69%
